Assay results taken from ChEMBL document CHEMBL5584236, “Development of novel bisphenol derivatives with a membrane-targeting mechanism as potent gram-positive antibacterial agents” (Eur J Med Chem, 2024).

Experiments:
[1] = Hemolytic activity against rabbit RBC incubated for 1 hr by multimode plate reader; type: toxicity, cell-based, Oryctolagus cuniculus, Erythrocyte; conditions: rabbit red blood cells (erythrocytes)
[2] = system: Staphylococcus aureus; assay: Antibacterial activity against methicillin-resistant Staphylococcus aureus N315 assessed as reduction in microbial growth incubated for 22 to 24 hrs by CLSI based broth microdilution method; type: functional; conditions: time 22-24 hrs
[3] = system: Staphylococcus aureus; assay: Antibacterial activity against methicillin-resistant Staphylococcus aureus NCTC10442 assessed as reduction in microbial growth incubated for 22 to 24 hrs by CLSI based broth microdilution method; type: functional; conditions: time 22-24 hrs
[4] = system: Staphylococcus aureus; assay: Antibacterial activity against Staphylococcus aureus ATCC29213 assessed as reduction in microbial growth incubated for 22 to 24 hrs by CLSI based broth microdilution method; type: functional; conditions: time 22-24 hrs
[5] = system: Escherichia coli; assay: Antibacterial activity against Escherichia coli ATCC25922 assessed as reduction in microbial growth incubated for 22 to 24 hrs by CLSI based broth microdilution method; type: functional; conditions: time 22-24 hrs
[6] = system: Staphylococcus epidermidis; assay: Antibacterial activity against Staphylococcus epidermidis ATCC12228 assessed as reduction in microbial growth incubated for 22 to 24 hrs by CLSI based broth microdilution method; type: functional; conditions: time 22-24 hrs
[7] = system: Staphylococcus epidermidis; assay: Antibacterial activity against Staphylococcus epidermidis CMCC26069 assessed as reduction in microbial growth incubated for 22 to 24 hrs by CLSI based broth microdilution method; type: functional; conditions: time 22-24 hrs
[8] = system: Acinetobacter baumannii; assay: Antibacterial activity against Acinetobacter baumannii ATCC17978 assessed as reduction in microbial growth incubated for 22 to 24 hrs by CLSI based broth microdilution method; type: functional; conditions: time 22-24 hrs
[9] = system: Staphylococcus aureus; assay: Antibacterial activity against Staphylococcus aureus ATCC25923 assessed as reduction in microbial growth incubated for 22 to 24 hrs by CLSI based broth microdilution method; type: functional; conditions: time 22-24 hrs
[10] = system: Klebsiella pneumoniae; assay: Antibacterial activity against Klebsiella pneumoniae ATCC10031 assessed as reduction in microbial growth incubated for 22 to 24 hrs by CLSI based broth microdilution method; type: functional; conditions: time 22-24 hrs
[11] = system: Acinetobacter baumannii; assay: Antibacterial activity against Acinetobacter baumannii R28889 assessed as reduction in microbial growth incubated for 22 to 24 hrs by CLSI based broth microdilution method; type: functional; conditions: time 22-24 hrs
[12] = system: Staphylococcus aureus; assay: Drug resistance, ratio of MIC for Staphylococcus aureus ATCC29213 after 13 passages to MIC for Staphylococcus aureus ATCC29213 after initial exposure; type: functional
[13] = system: Staphylococcus aureus; assay: Antibacterial activity against Staphylococcus aureus ATCC29213 infected in C57BL6 mouse corneal infection model assessed as log reduction in CFU at 5 % administered topically on corneas for four times in 3 days by MHA plate counting method; type: functional; conditions: time 3 day

SMILES | HC50 at 1 h [1] [µg/mL] | MIC [2] [µg/mL] | MIC [3] [µg/mL] | MIC [4] [µg/mL] | MIC [5] [µg/mL] | MIC [6] [µg/mL] | MIC [7] [µg/mL] | MIC [8] [µg/mL] | MIC [9] [µg/mL] | MIC [10] [µg/mL] | MIC [11] [µg/mL] | Ratio [12] | log(activity) [13]
COC(=O)[C@H](CCCNC(=N)N)NC(=O)COc1ccc(S(=O)(=O)c2ccc(OC(C)C)cc2)cc1 | > 200 | > 50 | > 50 | > 50 | > 50 |  |  |  |  |  |  |  | 
CCN(CC)CCCCOc1ccc(S(=O)(=O)c2ccc(OCC=C(C)C)cc2)cc1 | 69.4 | 25 | 25 | 50 | > 50 |  |  |  |  |  |  |  | 
COC(=O)[C@H](CCCNC(=N)N)NC(=O)[C@H](CCCNC(=N)N)NC(=O)COc1ccc(S(=O)(=O)c2ccc(OCC=C(C)C)cc2)cc1 | > 200 | 6.25 | 6.25 | 25 | > 50 |  |  |  |  |  |  |  | 
CC(C)=CCC/C(C)=C\COc1ccc(S(=O)(=O)c2ccc(OCCCCNC(=N)N)cc2)cc1 | 144 | 0.78 | 0.78 | 1.56 | > 50 |  |  |  |  |  |  |  | 
CC(C)=CCOc1ccc(S(=O)(=O)c2ccc(OCCCCN(C)C)cc2)cc1 | 67.8 | 12.5 | 12.5 | 25 | 50 |  |  |  |  |  |  |  | 
CCNCCCCOc1ccc(S(=O)(=O)c2ccc(OCC=C(C)C)cc2)cc1 | 70.8 | 25 | 25 | 25 | > 50 |  |  |  |  |  |  |  | 
CCOC(=O)COc1ccc(S(=O)(=O)c2ccc(OC(C)C)cc2)cc1 | > 200 | > 50 | > 50 | > 50 | > 50 |  |  |  |  |  |  |  | 
CC(C)=CCOc1ccc(S(=O)(=O)c2ccc(OCCCCNC(=N)N)cc2)cc1 | > 200 | 1.56 | 3.12 | 3.12 | 12.5 | 1.56 | 1.56 | 6.25 | 3.12 | 6.25 | 6.25 |  | 
CC(C)=CCOc1ccc(S(=O)(=O)c2ccc(OCCOCCNC(=N)N)cc2)cc1 | > 200 | 3.12 | 3.12 | 6.25 | 50 |  |  |  |  |  |  |  | 
CCn1cc(C(=O)O)c(=O)c2cc(F)c(N3CCNCC3)cc21 [NORFLOXACIN] |  |  |  |  |  |  |  |  |  |  |  | 4 | 
CN[C@H](CC(C)C)C(=O)N[C@H]1C(=O)N[C@@H](CC(N)=O)C(=O)N[C@H]2C(=O)N[C@H]3C(=O)N[C@H](C(=O)N[C@H](C(=O)O)c4cc(O)cc(O)c4-c4cc3ccc4O)[C@H](O)c3ccc(c(Cl)c3)Oc3cc2cc(c3O[C@@H]2O[C@H](CO)[C@@H](O)[C@H](O)[C@H]2O[C@H]2C[C@](C)(N)[C@H](O)[C@H](C)O2)Oc2ccc(cc2Cl)[C@H]1O [VANCOMYCIN] |  |  |  | 0.78 |  |  |  |  | 0.78 |  |  |  | 4.8
C=CCCCCCOc1ccc(S(=O)(=O)c2ccc(OCCCCNC(=N)N)cc2)cc1 | > 200 | 0.78 | 0.78 | 1.56 | > 50 |  |  |  |  |  |  |  | 
C=CCOc1ccc(S(=O)(=O)c2ccc(OCCCCNC(=N)N)cc2)cc1 | > 200 | 6.25 | 6.25 | 6.25 | 50 |  |  |  |  |  |  |  | 
